Reference: US11173126B2, “Nanoalum particles comprising a PAA sizing agent” (priority 2016, dated 2021)

Tests used:
[1] = Particle size (Z-ave) and polydispersity by dynamic light scattering; format: physicochemical; conditions: single non-pegylated phospholipid included during milling; data not shown
[2] = system: C57Bl/6 mice; conditions: mouse, in vivo
[3] = system: C57/BL6 mice; conditions: mouse, in vivo

| Compound | effectiveness as sizing agent (aggregation of alum) [1] | ID97-specific CD4+ T cell response (CD154, IFN-γ, TNF, IL-2) [2] | luciferase expression from RNA replicon [3] |
| --- | --- | --- | --- |
| Distearoylglycerophosphoethanolamine [DSPE] | not found to be effective sizing agents | – | – |
| CCCCCCCCCCCCCC(=O)OC[C@H](COP(=O)(O)OCCN)OC(=O)CCCCCCCCCCCCC [DMPE] | not found to be effective sizing agents | – | – |
| Poly(acrylic acid) [PAA] | – | low frequency | does not deliver and/or induce an expressible level |
